# Source: patent US12643887B2, “Heterocyclic derivatives with cardiomyocyte proliferation activity for treatment of heart diseases” (Tongji University, priority 2019, dated 2026)
# pIC50: −log10 of the molar value.
# Experiments:
# [1] = test system: Neonatal Rat Ventricular Myocytes (NRVMs); test: Myocyte proliferation assay (EdU assay) in neonatal rat ventricular myocytes; assay type: cell-based; details: growth relative to blank myocyte growth without compound added; for Avg 1 uM (average myocyte proliferation): compound 1 uM; for Avg 3 uM (average myocyte proliferation): compound 3 uM
# Outline: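 Neonatal rat ventricular myocytes, fibroblast-depleted by preplating, serum-starved 24 h (2% FBS/ITS), then given compound at 10, 3 or 1 uM in 6% FBS medium for 36 h before 12 h EdU labelling. Fixed cells stained for EdU (Click-iT), ab8295 primary antibody and DAPI; quantified by high-content confocal imaging.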
# [2] = molecular target: T1, human HIPK2 (Homo sapiens, UniProt Q9H2X6); test: HIPK2 enzyme assay (ADP-Glo); assay type: biochemical; details: ADP-Glo, ATP 5 μM; read-out: HIPK2 IC50
# T1 construct: Recombinant human HIPK2 (1-640); GST (N); purchased SignalChem H04-11BG; host or cells: Sf9 insect cells
# Outline: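 GST-tagged HIPK2 (1-640) from Sf9, 1 nM, preincubated 30 min at 25° C with inhibitor in 40 mM Tris pH 7.5, 20 mM MgCl2. Reaction ran 90 min at 25° C with GST-MBP substrate at 0.05 mg/ml and 5 μM ATP. ADP-Glo luminescence; IC50 by four-parameter logistic fit.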
# T1 sequence (Q9H2X6 1-640): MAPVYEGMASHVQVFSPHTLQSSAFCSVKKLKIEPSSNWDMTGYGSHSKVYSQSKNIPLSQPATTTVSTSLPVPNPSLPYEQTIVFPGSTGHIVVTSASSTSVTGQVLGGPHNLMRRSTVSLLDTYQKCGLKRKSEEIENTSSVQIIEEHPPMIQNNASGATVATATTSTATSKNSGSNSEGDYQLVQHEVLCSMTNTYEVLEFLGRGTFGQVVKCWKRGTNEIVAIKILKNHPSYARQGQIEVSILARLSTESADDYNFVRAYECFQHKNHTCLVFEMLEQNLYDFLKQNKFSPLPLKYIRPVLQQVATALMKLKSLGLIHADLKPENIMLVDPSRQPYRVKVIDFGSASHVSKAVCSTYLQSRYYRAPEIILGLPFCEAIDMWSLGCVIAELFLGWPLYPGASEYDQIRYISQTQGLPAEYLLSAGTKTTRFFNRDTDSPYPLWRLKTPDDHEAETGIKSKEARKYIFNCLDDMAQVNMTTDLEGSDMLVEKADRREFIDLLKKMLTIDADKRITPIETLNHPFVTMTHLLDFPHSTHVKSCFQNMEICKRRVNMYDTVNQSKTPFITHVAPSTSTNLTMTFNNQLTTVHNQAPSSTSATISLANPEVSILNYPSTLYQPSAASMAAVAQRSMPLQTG
Structure (SMILES),pIC50 [2],Avg 1 uM (average myocyte proliferation) [1],Avg 3 uM (average myocyte proliferation) [1]
"O=C1NC(Nc2ccccc2)=N/C1=C\c1ccc2nn[nH]c2c1 [Example 56, (Z)-5-((1H-benzo[d][1,2,3]triazol-6-yl)methylene)-2-(phenylamino)-3,5-dihydro-4H-imidazol-4-one]",5.00 to 6.00,* (<10% growth relative to blank myocyte growth without compound added.),* (<10% growth relative to blank myocyte growth without compound added.)
"O=C1NC(Nc2ccc3ncsc3c2)=N/C1=C\c1ccc2cccnc2c1 [Example 60, (Z)-2-(benzo[d]thiazol-6-ylamino)-5-(quinolin-7-ylmethylene)-3,5-dihydro-4H-imidazol-4-one]",< 5.00,* (<10% growth relative to blank myocyte growth without compound added.),* (<10% growth relative to blank myocyte growth without compound added.)
"O=C1NC(Nc2ccc3ncsc3c2)=N/C1=C\c1ccc2cc[nH]c2c1 [Example 63, (Z)-5-((1H-indol-6-yl)methylene)-2-(benzo[d]thiazol-6-ylamino)-3,5-dihydro-4H-imidazol-4-one]",< 5.00,* (<10% growth relative to blank myocyte growth without compound added.),* (<10% growth relative to blank myocyte growth without compound added.)
"CN(C1=N/C(=C\c2ccc3c(c2)OCO3)C(=O)N1)c1ccc2ncsc2c1 [Example 70, (Z)-5-(benzo[d][1,3]dioxol-5-ylmethylene)-2-(benzo[d]thiazol-6-yl(methyl)amino)-3,5-dihydro-4H-imidazol-4-one]",< 5.00,** (10%-50%),** (10%-50%)
"Cn1cnc2cc(/C=C3\N=C(Nc4ccccc4)NC3=O)ccc21 [Example 71, (Z)-5-((1-methyl-1H-benzo[d]imidazol-5-yl)methylene)-2-(phenylamino)-3,5-dihydro-4H-imidazol-4-one]",< 5.00,* (<10% growth relative to blank myocyte growth without compound added.),* (<10% growth relative to blank myocyte growth without compound added.)
"O=C1NC(Nc2ccccc2)=N/C1=C\c1ccc2sccc2c1 [Example 72, (Z)-5-(benzo[b]thiophen-5-ylmethylene)-2-(phenylamino)-3,5-dihydro-4H-imidazol-4-one]",< 5.00,* (<10% growth relative to blank myocyte growth without compound added.),* (<10% growth relative to blank myocyte growth without compound added.)
"O=C1NC(Nc2ccccc2)=N/C1=C\c1ccc2cc[nH]c2c1 [Example 73, (Z)-5-((1H-indol-6-yl)methylene)-2-(phenylamino)-3,5-dihydro-4H-imidazol-4-one]",< 5.00,* (<10% growth relative to blank myocyte growth without compound added.),* (<10% growth relative to blank myocyte growth without compound added.)
"O=C1NC(Nc2ccc3ncsc3c2)=N/C1=C\c1ccc2c(c1)OCCO2 [Example 74, (Z)-2-(benzo[d]thiazol-6-ylamino)-5-((2,3-dihydrobenzo[b][1,4]dioxin-6-yl)methylene)-3,5-dihydro-4H-imidazol-4-one]",< 5.00,* (<10% growth relative to blank myocyte growth without compound added.),*** (>50%)
"Cn1ncc2cc(/C=C3\N=C(Nc4ccccc4)NC3=O)ccc21 [Example 77, (Z)-5-((1-methyl-1H-indazol-5-yl)methylene)-2-(phenylamino)-3,5-dihydro-4H-imidazol-4-one]",< 5.00,* (<10% growth relative to blank myocyte growth without compound added.),* (<10% growth relative to blank myocyte growth without compound added.)
"Cn1ncc2cc(/C=C3\N=C(Nc4ccc5ncsc5c4)NC3=O)ccc21 [Example 78, (Z)-2-(benzo[d]thiazol-6-ylamino)-5-((1-methyl-1H-indazol-5-yl)methylene)-3,5-dihydro-4H-imidazol-4-one]",< 5.00,* (<10% growth relative to blank myocyte growth without compound added.),* (<10% growth relative to blank myocyte growth without compound added.)
"Cn1ncc2ccc(/C=C3\N=C(Nc4ccccc4)NC3=O)cc21 [Example 79, 5-((1-methyl-1H-indazol-6-yl)methylene)-2-(phenylamino)-3,5-dihydro-4H-imidazol-4-one]",< 5.00,* (<10% growth relative to blank myocyte growth without compound added.),* (<10% growth relative to blank myocyte growth without compound added.)
"Cn1ncc2ccc(/C=C3\N=C(Nc4ccc5ncsc5c4)NC3=O)cc21 [Example 80, (Z)-2-(benzo[d]thiazol-6-ylamino)-5-((1-methyl-1H-indazol-6-yl)methylene)-3,5-dihydro-4H-imidazol-4-one]",< 5.00,* (<10% growth relative to blank myocyte growth without compound added.),* (<10% growth relative to blank myocyte growth without compound added.)

# Now from value to molecule, other results behind:
pIC50 [2],Structure (SMILES),Avg 1 uM (average myocyte proliferation) [1],Avg 3 uM (average myocyte proliferation) [1]
6.00 to 7.00,"O=C1NC(Nc2ccc3ncsc3c2)=N/C1=C\c1ccc2scnc2c1 [Example 57, (Z)-5-(benzo[d]thiazol-5-ylmethylene)-2-(benzo[d]thiazol-6-ylamino)-3,5-dihydro-4H-imidazol-4-one]",* (<10% growth relative to blank myocyte growth without compound added.),* (<10% growth relative to blank myocyte growth without compound added.)
< 5.00,"O=C1NC(Nc2ccc3ncsc3c2)=N/C1=C\c1ccc2[nH]ccc2c1 [Example 58, (Z)-5-((1H-indol-5-yl)methylene)-2-(benzo[d]thiazol-6-ylamino)-3,5-dihydro-4H-imidazol-4-one]",* (<10% growth relative to blank myocyte growth without compound added.),* (<10% growth relative to blank myocyte growth without compound added.)
< 5.00,"O=C1NC(Nc2ccc3ncsc3c2)=N/C1=C\c1ccc2occc2c1 [Example 59, (Z)-2-(benzo[d]thiazol-6-ylamino)-5-(benzofuran-5-ylmethylene)-3,5-dihydro-4H-imidazol-4-one]",* (<10% growth relative to blank myocyte growth without compound added.),* (<10% growth relative to blank myocyte growth without compound added.)
6.00 to 7.00,"Cn1cnc2cc(NC3=N/C(=C\c4ccc5ncsc5c4)C(=O)N3)ccc21 [Example 61, (Z)-5-(benzo[d]thiazol-6-ylmethylene)-2-((1-methyl-1H-benzo[d]imidazol-5-yl)amino)-3,5-dihydro-4H-imidazol-4-one]",* (<10% growth relative to blank myocyte growth without compound added.),** (10%-50%)
> 7.00,"O=C1NC(Nc2ccc3[nH]ccc3c2)=N/C1=C\c1ccc2ncsc2c1 [Example 69, (Z)-2-((1H-indol-5-yl)amino)-5-(benzo[d]thiazol-6-ylmethylene)-3,5-dihydro-4H-imidazol-4-one]",** (10%-50%),* (<10% growth relative to blank myocyte growth without compound added.)
> 7.00,"Cn1cnc2ccc(/C=C3\N=C(Nc4ccc5ncsc5c4)NC3=O)cc21 [Example 75, (Z)-2-(benzo[d]thiazol-6-ylamino)-5-((1-methyl-1H-benzo[d]imidazol-6-yl)methylene)-3,5-dihydro-4H-imidazol-4-one]",** (10%-50%),** (10%-50%)
6.00 to 7.00,"O=C1NC(Nc2ccc3ncsc3c2)=N/C1=C\c1ccc2nc[nH]c2c1 [Example 76, (Z)-5-((1H-benzo[d]imidazol-6-yl)methylene)-2-(benzo[d]thiazol-6-ylamino)-3,5-dihydro-4H-imidazol-4-one]",* (<10% growth relative to blank myocyte growth without compound added.),** (10%-50%)
